# pIC50: −log10 of the molar value.
# How the values were obtained:
# BRM = BRM (Homo sapiens, UniProt P51531); assay: ATPase catalytic activity assay (ADP-Glo), BRM; settings: 30 nM BRM, 400 μM ATP; for IC50: BRM ATPase: IC50 (uM)
# BRG-1 = BRG-1 (Homo sapiens, UniProt P51532); assay: ATPase catalytic activity assay (ADP-Glo), BRG-1; settings: for Emax: 1 h, read-out: BRG1 Max % Inhibition, ADP-Glo, 30 nM BRG-1, 400 μM ATP
# Sequence of BRG-1 (P51532 whole entry): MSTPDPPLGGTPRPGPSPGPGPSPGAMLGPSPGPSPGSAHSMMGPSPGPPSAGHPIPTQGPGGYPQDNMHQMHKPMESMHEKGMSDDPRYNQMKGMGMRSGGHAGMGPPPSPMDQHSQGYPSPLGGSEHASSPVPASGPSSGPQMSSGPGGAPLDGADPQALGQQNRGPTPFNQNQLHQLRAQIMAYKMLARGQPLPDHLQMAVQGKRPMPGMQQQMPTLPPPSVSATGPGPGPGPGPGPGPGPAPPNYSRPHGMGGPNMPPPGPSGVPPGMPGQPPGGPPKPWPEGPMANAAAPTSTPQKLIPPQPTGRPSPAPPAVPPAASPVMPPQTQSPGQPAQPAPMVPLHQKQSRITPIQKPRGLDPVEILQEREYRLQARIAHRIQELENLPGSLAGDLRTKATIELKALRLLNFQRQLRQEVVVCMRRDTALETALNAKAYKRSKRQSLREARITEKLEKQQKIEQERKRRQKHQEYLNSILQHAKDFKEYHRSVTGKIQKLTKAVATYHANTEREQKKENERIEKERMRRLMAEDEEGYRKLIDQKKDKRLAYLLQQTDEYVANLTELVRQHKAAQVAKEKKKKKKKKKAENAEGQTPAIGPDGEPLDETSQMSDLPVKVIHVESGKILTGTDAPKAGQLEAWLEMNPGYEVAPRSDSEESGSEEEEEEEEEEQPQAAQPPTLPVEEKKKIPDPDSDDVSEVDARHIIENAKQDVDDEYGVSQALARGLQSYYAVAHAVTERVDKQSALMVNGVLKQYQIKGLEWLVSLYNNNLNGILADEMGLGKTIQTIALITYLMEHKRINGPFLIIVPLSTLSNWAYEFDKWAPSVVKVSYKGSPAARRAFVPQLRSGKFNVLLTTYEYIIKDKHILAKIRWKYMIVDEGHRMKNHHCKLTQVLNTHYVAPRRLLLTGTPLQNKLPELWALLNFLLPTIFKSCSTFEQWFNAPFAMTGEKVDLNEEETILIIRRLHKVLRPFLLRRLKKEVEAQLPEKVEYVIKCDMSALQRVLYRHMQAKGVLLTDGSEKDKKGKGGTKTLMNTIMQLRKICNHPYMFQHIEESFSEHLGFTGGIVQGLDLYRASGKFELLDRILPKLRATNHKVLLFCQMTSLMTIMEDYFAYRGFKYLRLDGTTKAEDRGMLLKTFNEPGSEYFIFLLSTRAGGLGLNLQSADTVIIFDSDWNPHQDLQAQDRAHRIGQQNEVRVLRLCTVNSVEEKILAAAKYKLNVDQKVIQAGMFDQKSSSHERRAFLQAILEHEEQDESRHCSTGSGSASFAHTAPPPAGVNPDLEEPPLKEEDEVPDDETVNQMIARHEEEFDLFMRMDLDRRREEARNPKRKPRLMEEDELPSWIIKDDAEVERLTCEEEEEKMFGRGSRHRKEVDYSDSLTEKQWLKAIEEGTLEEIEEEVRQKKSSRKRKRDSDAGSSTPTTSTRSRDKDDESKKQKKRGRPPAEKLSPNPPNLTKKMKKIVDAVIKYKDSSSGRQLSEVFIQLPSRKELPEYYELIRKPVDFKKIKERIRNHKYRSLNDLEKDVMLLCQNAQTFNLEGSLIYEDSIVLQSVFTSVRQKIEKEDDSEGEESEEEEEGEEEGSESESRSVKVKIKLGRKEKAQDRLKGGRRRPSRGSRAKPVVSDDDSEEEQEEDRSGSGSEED
# Method: The ATPase catalytic activity of BRM or BRG-1 was measured by an in vitro biochemical assay using ADP-Glo™ (Promega, V9102). The ADP-Glo™ kinase assay is performed in two steps once the reaction is complete. The first step is to deplete any unconsumed ATP in the reaction. The second step is to convert the reaction product ADP to ATP, which will be utilized by the luciferase to generate luminesce and be detected by a luminescence reader, such as Envision.
# Then following addition of 5 μL of ADP-Glo™ Reagent provided in the kit, the reaction incubates at room temperature for 40 minutes. Then 10 μL of Kinase Detection Reagent provided in the kit is added to convert ADP to ATP, and the reaction incubates at room temperature for 60 minutes. Finally, luminescence measurement is collected with a plate-reading luminometer, such as Envision.
# Sequence of BRM (P51531 whole entry): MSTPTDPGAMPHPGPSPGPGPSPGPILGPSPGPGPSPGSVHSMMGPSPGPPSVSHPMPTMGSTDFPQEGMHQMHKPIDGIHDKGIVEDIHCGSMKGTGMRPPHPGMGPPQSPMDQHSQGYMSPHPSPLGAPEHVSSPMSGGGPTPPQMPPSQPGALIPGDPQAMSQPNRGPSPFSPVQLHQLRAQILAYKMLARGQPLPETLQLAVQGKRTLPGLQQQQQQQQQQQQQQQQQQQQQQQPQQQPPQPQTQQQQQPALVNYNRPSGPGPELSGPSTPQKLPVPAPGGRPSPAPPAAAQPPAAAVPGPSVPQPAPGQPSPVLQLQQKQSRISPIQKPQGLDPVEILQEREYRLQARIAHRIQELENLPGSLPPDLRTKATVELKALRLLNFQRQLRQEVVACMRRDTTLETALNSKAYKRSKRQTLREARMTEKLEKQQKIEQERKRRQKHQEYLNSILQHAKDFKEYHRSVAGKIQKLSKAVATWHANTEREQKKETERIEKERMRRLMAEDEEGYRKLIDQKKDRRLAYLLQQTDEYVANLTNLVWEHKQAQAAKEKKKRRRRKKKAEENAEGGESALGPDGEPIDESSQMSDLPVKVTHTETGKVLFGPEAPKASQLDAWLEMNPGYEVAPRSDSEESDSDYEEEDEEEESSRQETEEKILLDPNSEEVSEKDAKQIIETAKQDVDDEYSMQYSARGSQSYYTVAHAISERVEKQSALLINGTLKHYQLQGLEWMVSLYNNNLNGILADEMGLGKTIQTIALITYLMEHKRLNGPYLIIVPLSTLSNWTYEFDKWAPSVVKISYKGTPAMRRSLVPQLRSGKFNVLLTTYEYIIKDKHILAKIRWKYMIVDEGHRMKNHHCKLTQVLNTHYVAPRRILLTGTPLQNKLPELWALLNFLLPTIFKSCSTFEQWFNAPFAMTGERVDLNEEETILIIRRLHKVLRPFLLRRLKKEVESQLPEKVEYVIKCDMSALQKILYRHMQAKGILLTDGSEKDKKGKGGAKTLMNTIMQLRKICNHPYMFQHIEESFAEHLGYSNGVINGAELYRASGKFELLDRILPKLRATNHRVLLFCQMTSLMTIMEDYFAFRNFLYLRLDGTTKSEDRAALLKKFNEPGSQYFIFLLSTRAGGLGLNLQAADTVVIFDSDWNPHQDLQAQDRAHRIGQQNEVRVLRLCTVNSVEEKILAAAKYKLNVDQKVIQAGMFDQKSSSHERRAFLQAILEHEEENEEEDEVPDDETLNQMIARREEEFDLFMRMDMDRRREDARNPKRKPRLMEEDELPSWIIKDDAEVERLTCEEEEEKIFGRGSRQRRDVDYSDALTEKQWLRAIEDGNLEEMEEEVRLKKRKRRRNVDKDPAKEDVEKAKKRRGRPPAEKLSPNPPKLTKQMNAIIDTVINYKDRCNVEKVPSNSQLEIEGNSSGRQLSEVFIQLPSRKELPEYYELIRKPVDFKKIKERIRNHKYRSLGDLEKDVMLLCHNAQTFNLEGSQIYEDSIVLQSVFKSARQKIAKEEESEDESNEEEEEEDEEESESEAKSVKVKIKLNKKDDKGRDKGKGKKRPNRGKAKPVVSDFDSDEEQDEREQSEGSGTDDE
BRM Max % Inhibition (BRM) [%],IC50 (BRM) [µM],pIC50 (BRG-1),Emax (BRG-1) [%],SMILES
97,0.1 to 0.5,6.00 to 6.30,65,C[C@@]1(F)COCc2c(F)cc(C(=O)NCc3cc4nc(-c5ccccc5)ccc4cn3)cc21 [Compound 428]
99,< 0.1,6.30 to 7.00,93,C[C@@]1(F)COCc2ccc(C(=O)NCc3cc4nc(-c5ccnc(N6CCC6)n5)ccc4cn3)cc21 [Compound 429]
100,< 0.1,6.30 to 7.00,92,COC1CN(c2nccc(-c3ccc4cnc(CNC(=O)c5ccc6c(c5)[C@](C)(C#N)COC6)cc4n3)n2)C1 [Compound 430]
86,0.1 to 0.5,6.00 to 6.30,53,C[C@@]1(C#N)COCc2ccc(C(=O)NCc3cc4nc(-c5ccccc5OCCO)ccc4cn3)cc21 [Compound 431]
98,< 0.1,6.30 to 7.00,88,COc1nccc(-c2ccc3cnc(CNC(=O)c4ccc5c(c4)[C@](C)(C#N)COC5)cc3n2)c1F [Compound 432]
96,0.1 to 0.5,6.00 to 6.30,59,Cc1nn(-c2ccc3cnc(CNC(=O)c4ccc5c(c4)[C@](C)(C#N)COC5)cc3n2)cc1F [Compound 433]
100,< 0.1,> 7.00,92,Cn1ccc2c(F)cc(-c3ccc4cnc(CNC(=O)c5ccc6c(c5)[C@](C)(C#N)COC6)cc4n3)cc2c1=O [Compound 434]
100,< 0.1,6.30 to 7.00,93,C[C@@]1(C#N)COCc2ccc(C(=O)NCc3cc4nc(-c5cncc(N6CCOCC6)n5)ccc4cn3)cc21 [Compound 435]
100,< 0.1,6.30 to 7.00,85,C[C@@]1(C#N)COCc2ccc(C(=O)NCc3cc4nc(-c5cnc6cccnn56)ccc4cn3)cc21 [Compound 436]
99,< 0.1,6.30 to 7.00,87,C[C@@]1(C#N)COCc2ccc(C(=O)NCc3cc4nc(-c5ccnc(N6CCC6)c5)ccc4cn3)cc21 [Compound 437]
84,0.1 to 0.5,< 6.00,28,C[C@@]1(C#N)COCc2ccc(C(=O)NCc3cc4nc(-c5ccncc5)sc4cn3)cc21 [Compound 438]
88,0.1 to 0.5,< 6.00,36,C[C@@]1(C#N)COCc2ccc(C(=O)NCc3cc4nc(-c5cccnc5)sc4cn3)cc21 [Compound 439]
88,0.1 to 0.5,< 6.00,40,C[C@@]1(C#N)COCc2ccc(C(=O)NCc3cc4nc(-c5ccccn5)sc4cn3)cc21 [Compound 440]
97,0.1 to 0.5,6.00 to 6.30,80,C[C@@]1(C#N)COCc2ccc(C(=O)NCc3cc4nc(-c5cncc(N6CCC6)c5)ccc4cn3)cc21 [Compound 441]
96,< 0.1,6.00 to 6.30,75,COc1cc(-c2ccc3cnc(CNC(=O)c4ccc5c(c4)[C@](C)(C#N)COC5)cc3n2)nc(N2CCC2)n1 [Compound 442]
96,0.1 to 0.5,6.30 to 7.00,82,Cn1ccc2nc(-c3ccc4cnc(CNC(=O)c5ccc6c(c5)[C@](C)(C#N)COC6)cc4n3)sc2c1=O [Compound 443]
93,0.1 to 0.5,6.00 to 6.30,67,Cc1nccc(-c2ccc3cnc(CNC(=O)c4ccc5c(c4)[C@](C)(C#N)COC5)cc3n2)n1 [Compound 444]
96,0.1 to 0.5,6.00 to 6.30,72,COC1CN(C(=O)c2cccc(-c3ccc4cnc(CNC(=O)c5ccc6c(c5)[C@](C)(C#N)COC6)cc4n3)c2)C1 [Compound 445]
87,0.1 to 0.5,< 6.00,44,COc1cc(-c2ccc3cnc(CNC(=O)c4ccc5c(c4)[C@](C)(C#N)COC5)cc3n2)c(F)cn1 [Compound 446]
95,0.1 to 0.5,6.00 to 6.30,84,C[C@@]1(C#N)COCc2ccc(C(=O)NCc3cc4nc(-c5ccn6nccc6n5)ccc4cn3)cc21 [Compound 447]
97,< 0.1,6.30 to 7.00,93,Cn1ncc2ccc(-c3ccc4cnc(CNC(=O)c5ccc6c(c5)[C@](C)(C#N)COC6)cc4n3)cc2c1=O [Compound 448]
92,0.1 to 0.5,< 6.00,50,C[C@@]1(C#N)COCc2ccc(C(=O)NCc3cc4nc(-c5cc(F)c(=O)n(C(F)F)c5)ccc4cn3)cc21 [Compound 449]

BRM Max % Inhibition (BRM) [%],IC50 (BRM) [µM],pIC50 (BRG-1),Emax (BRG-1) [%],SMILES
96,0.1 to 0.5,6.00 to 6.30,73,CNC(=O)c1cc(-c2ccc3cnc(CNC(=O)c4ccc5c(c4)[C@](C)(C#N)COC5)cc3n2)ccn1 [Compound 450]
93,0.1 to 0.5,6.00 to 6.30,58,C[C@@]1(C#N)COCc2ccc(C(=O)NCc3cc4nc(-c5ccncc5)ccc4cn3)cc21 [Compound 451]
97,< 0.1,6.30 to 7.00,98,Cn1ccc2ccc(-c3ccc4cnc(CNC(=O)c5ccc6c(c5)[C@](C)(C#N)COC6)cc4n3)cc2c1=O [Compound 452]
91,0.1 to 0.5,6.00 to 6.30,61,Cn1ncc2c1CCN(c1ccc3cnc(CNC(=O)c4ccc5c(c4)[C@](C)(C#N)COC5)cc3n1)C2 [Compound 453]
97,< 0.1,6.30 to 7.00,88,COc1nn(C)cc1-c1ccc2cnc(CNC(=O)c3ccc4c(c3)[C@](C)(C#N)COC4)cc2n1 [Compound 454]
94,0.1 to 0.5,6.00 to 6.30,75,Cn1cc2c(n1)CCN(c1ccc3cnc(CNC(=O)c4ccc5c(c4)[C@](C)(C#N)COC5)cc3n1)C2 [Compound 455]
95,0.1 to 0.5,6.00 to 6.30,80,C[C@@]1(C#N)COCc2ccc(C(=O)NCc3cc4nc(-c5ccc(N6CCC6)nc5)ccc4cn3)cc21 [Compound 456]
95,0.1 to 0.5,6.00 to 6.30,61,Cn1ncc2c1CN(c1ccc3cnc(CNC(=O)c4ccc5c(c4)[C@](C)(C#N)COC5)cc3n1)CC2 [Compound 457]
95,0.1 to 0.5,6.00 to 6.30,74,Cn1cc2c(n1)CN(c1ccc3cnc(CNC(=O)c4ccc5c(c4)[C@](C)(C#N)COC5)cc3n1)CC2 [Compound 458]
97,< 0.1,6.30 to 7.00,86,C[C@@]1(C#N)COCc2ccc(C(=O)NCc3cc4nc(-c5ccn6nccc6c5)ccc4cn3)cc21 [Compound 459]
98,0.1 to 0.5,6.00 to 6.30,75,CNC(=O)c1cccc(-c2ccc3cnc(CNC(=O)c4ccc5c(c4)[C@](C)(C#N)COC5)cc3n2)c1F [Compound 460]
93,0.1 to 0.5,6.00 to 6.30,65,Cn1ncc2c1CN(c1ccc3cnc(CNC(=O)c4ccc5c(c4)[C@](C)(C#N)COC5)cc3n1)C2 [Compound 461]
93,0.1 to 0.5,6.00 to 6.30,71,COc1c(-c2ccc3cnc(CNC(=O)c4ccc5c(c4)[C@](C)(C#N)COC5)cc3n2)cnn1C [Compound 462]
98,< 0.1,6.00 to 6.30,82,C[C@@]1(C#N)COCc2ccc(C(=O)NCc3cc4nc(-c5ccccc5)cnc4cn3)cc21 [Compound 463]
88,0.1 to 0.5,< 6.00,48,CN(C)C(=O)c1cccc(-c2ccc3cnc(CNC(=O)c4ccc5c(c4)[C@](C)(C#N)COC5)cc3n2)n1 [Compound 464]
99,< 0.1,6.30 to 7.00,89,CN1CCN(c2cccc(-c3ccc4cnc(CNC(=O)c5ccc6c(c5)[C@](C)(C#N)COC6)cc4n3)n2)CC1 [Compound 465]
99,< 0.1,6.00 to 6.30,79,CNC(=O)c1cccc(-c2ccc3cnc(CNC(=O)c4ccc5c(c4)[C@](C)(C#N)COC5)cc3n2)n1 [Compound 466]
99,< 0.1,6.30 to 7.00,86,CNC(=O)c1cc(-c2ccc3cnc(CNC(=O)c4ccc5c(c4)[C@](C)(C#N)COC5)cc3n2)ccc1F [Compound 467]
100,< 0.1,6.00 to 6.30,80,COCCNC(=O)c1cccc(-c2ccc3cnc(CNC(=O)c4ccc5c(c4)[C@](C)(C#N)COC5)cc3n2)c1 [Compound 468]
98,< 0.1,6.30 to 7.00,85,C[C@@]1(C#N)COCc2ccc(C(=O)NCc3cc4nc(-c5cccc(C(F)F)n5)ccc4cn3)cc21 [Compound 469]
96,0.1 to 0.5,< 6.00,63,C[C@@]1(C#N)COCc2ccc(C(=O)NCc3cc4nc(N5CCCC5=O)ccc4cn3)cc21 [Compound 471]

# From patent US12441726B2, “Compounds and uses thereof” (Foghorn Therapeutics Inc., priority 2020, dated 2025)
